Test system: LNCaP androgen dependent metastatic prostate cancer cells
Experiment: Cell viability screen (CCK-8), LNCaP cells
Type: cell-based
Conditions: Homo sapiens, CCK-8, 96 hours, read-out: IC50, inhibition of cell viability
Description: FIGS. 2A-2H. Dose response curves. Does response curves for cell lines treated with 6, 10.5, 18.6, 32.4, 57.5 and 100 μM of compound (log) for 96 hours using % cell viability derived from CCK-8 absorbance readings at 450 nm (n=3, mean±SEM). A DMSO equivalent control (n=2±SEM) was also included for each cell line tested: Ea.hy.926 endothelial cells (Endo), LNCaP androgen dependent metastatic prostate cancer cells, TC2-Ras mouse prostate cancer cells, PC-3 androgen independent metastatic prostate cancer cells, and SH-SY5Y neruoblastoma cells. […]
Cell Viability Screen. […] Cell viability was measured by using the cell counting kit-8 (CCK-8, Dojindo). […] CCK-8 absorbance was measured at 450 nm using a GloMax Multimode Reader (Promega). Readings were performed the day after seeding to normalize for variations in cell seeding and after 96 hours of compound treatment. After each reading, CCK-8 media was removed and replaced with media containing compound as described previously. […] As described previously, an initial baseline CCK-8 reading was performed at 24 hours post seeding to correct for variations in seeding density. First, 450 nm values for each well were subtracted from media only readings to correct for baseline absorbance. Then, the 96 hour readings were normalized to their respective 24 hour readings to control for seeding variation. […]

- IC50: 10.3 µM
Structure (SMILES): O=C(c1cc(F)cc2c1OCOC2)N1CCN(C2c3ccccc3-c3ccccc32)CC1 [Compound C3, [4-(9h-fluoren-9-yl)piperazino](6-fluoro-4h-1,3-benzodioxin-8-yl)methanone]
